Columns and labels:
[1] = system: TopoII-supercoiled DNA complexes; experiment: TopoII-supercoiled DNA complexes on AFM cantilever, fluctuation recording; format: biochemical, human; conditions: 0.02 mM ATP, compared to ATP free buffer or AMPPMP solution
Experimental: As mentioned previously, TopoII interacts with DNA to simplify its topology. To record this reaction with our method we deposited TopoII-supercoiled DNA complexes on both sides of an AFM cantilever, as depicted in FIG. 6.
The experiment was performed using an APTES-coated AFM cantilever. The different media injected during experiment are: buffer (50 mM Tris-HCl (pH 8.0), 150 mM NaCl, 10 mM MgCl2 and 0.5 mM dithiothreitol), 0.02 mM. AMPPNP (an ATP analogue) and 0.02 mM ATP. […] Panel B depicts the experimental set-up to follow TopoII-DNA interactions. a) DNA molecule, b) TopoII, c) AFM cantilever, d) laser beam. Panel C evidences the differences in terms of the variance.
Here again the cantilever covered with TopoII-supercoiled DNA complexes was inserted in the analysis chamber and exposed to several consecutive liquid environments: 1) ATP free solution, 2) buffer containing a non functional ATP substitute, referred to as AMPPMP 3) ATP enriched medium. AMPPMP is a non-hydrolysable ATP analogue which inhibits TopoII activity.

human Topoisomerase II = experiment: TopoII adsorbed on AFM cantilever, fluctuation recording (drug affinity detection); format: biochemical
Text: This enzyme requires ATP to modify its 3D conformation and to act on DNA. TopoII is also the preferred target of numerous anticancerous drugs such as aclarubicin. This drug binds to TopoII, freezes its conformation and inhibits its action (15). In the first experiment, TopoII was adsorbed onto both sides of a cantilever. It was than introduced in the analysis chamber of an AFM and its laser beam was collimated on the apex of the cantilever. The reflection of the laser beam, sent to a split photo-detector, allowed detecting the fluctuations of the cantilever as depicted in FIG. 1 and, more in detail, FIG. 3,
The experiment consisted in injecting successively an ATP depleted buffer, an ATP enriched solution and an aclarubicin+ATP rich media in the analysis chamber and by recording the resulting fluctuations of the cantilever.
This experiment was performed using an APTES-coated AFM cantilever. The different buffers injected during experiment are: buffer (50 mM Tris-HCl (pH 8.0), 150 mM NaCl, 10 mM MgCl2, and 0.5 mM dithiothreitol), 0.02 mM ATP and 0.02 mM ATP plus 100 μM aclarubicin.
The media used in this experiment are: buffer (50 mM Tris-HCl (pH 8.0), 150 mM NaCl, 10 mM MgCl2 and 0.5 mM dithiothreitol.), 0.02 mM ATP, 0.2 mM ATP, 2 mM ATP and again buffer.

Staphylococcus aureus = experiment: Antibiotic sensitivity detection, non-motile bacteria on cantilever; format: cell-based; conditions: exposure to ampicillin in LB; FIG. 10
Text: Later on, similar experiments were repeated using non-motile bacteria (Staphylococcus aureus) susceptible to ampicillin. […] The results of the cantilever motion RMS are depicted in FIG. 10. In this experiment an APTES-coated AFM cantilever was used. The different phases of the experiment are depicted: PBS, bacteria in PBS, bacteria in LB and exposure to ampicillin.

Escherichia coli = experiment: Antibiotic sensitivity detection, bacteria adsorbed on cantilever; format: cell-based; conditions: FIG. 8
Text: Motile bacteria (Escherichia coli), resistant to kanamycin but sensitive to ampicillin, were adsorbed to both sides of a cantilever. The bacteria were successively exposed to both antibiotics to determine the impact on the bacterial motion/viability (see FIG. 7).
In these experiments the cantilever was introduced in the analysis chamber and exposed to a solution containing bacteria that eventually attached to its surface. The system was then exposed to: 1) nutriment depleted buffer, 2) nutriment solution (Lysogeny broth (LB)), 3) kanamycin-enriched LB solution 4) LB solution 5) ampicillins-enriched LB solution and, finally, 6) LB solution.
The experiment was performed using an APTES-coated AFM cantilever. The different phases of the experiment are depicted: PBS, bacteria in PBS, bacteria in LB, exposure to kanamycin, washing with LB, exposure to ampicillin, washing with LB.

## Nc1ncnc2c1ncn2[C@@H]1O[C@H](COP(=O)(O)OP(=O)(O)OP(=O)(O)O)[C@@H](O)[C@H]1O [ATP]
[1]
  cantilever fluctuation variance: significant increase
Human Topoisomerase II; 0.02 mM ATP, compared to ATP depleted buffer or aclarubicin, FIG. 4
  variance of the cantilever fluctuations: significantly higher
Human Topoisomerase II; 0.02 mM, 0.2 mM, 2 mM ATP, FIG. 5
  conformational changes induced on TopoII (cantilever fluctuation variance): dependent on its concentration

## CC[C@@]1(O)C[C@H](O[C@H]2C[C@H](N(C)C)[C@H](O[C@H]3C[C@H](O)[C@H](O[C@H]4CCC(=O)[C@H](C)O4)[C@H](C)O3)[C@H](C)O2)c2c(cc3c(c2O)C(=O)c2c(O)cccc2C3=O)[C@H]1C(=O)OC [aclarubicin]
Human Topoisomerase II; 0.02 mM ATP plus 100 μM aclarubicin, FIG. 4
  TopoII conformational state (cantilever fluctuation): again in equilibrium

## CC1(C)S[C@@H]2[C@H](NC(=O)[C@H](N)c3ccccc3)C(=O)N2[C@H]1C(=O)O [ampicillin]
Staphylococcus aureus
  internal movements of bacteria (cantilever motion): decreased dramatically
Escherichia coli; antibiotic-enriched LB solution, E. coli resistant to kanamycin, sensitive to ampicillin
  bacterial motion (cantilever fluctuations): dramatically decreased
Escherichia coli; step 6, LB solution after ampicillin exposure
  bacterial motion after washing with LB solution: remained at the same value

From US11299762B2, “Nanoscale motion detector” (Ecole Polytechnique Fédérale de Lausanne (EPFL), priority 2011, dated 2022)
